For series [1], the system named is BEAS-2B. Nature of the series: Cytoprotective activity in human BEAS2B cells assessed as decrease in As(+3)-induced cell death at 3.12 to 25 uM preincubated for 8 hrs followed by As(+3) challenge and measured after 24 hrs by MTT assay. The class given is functional, cell-based.
The target in series [2] is T1, Nuclear factor erythroid 2-related factor 2 (Homo sapiens) (UniProt Q16236).
T1 sequence (whole entry): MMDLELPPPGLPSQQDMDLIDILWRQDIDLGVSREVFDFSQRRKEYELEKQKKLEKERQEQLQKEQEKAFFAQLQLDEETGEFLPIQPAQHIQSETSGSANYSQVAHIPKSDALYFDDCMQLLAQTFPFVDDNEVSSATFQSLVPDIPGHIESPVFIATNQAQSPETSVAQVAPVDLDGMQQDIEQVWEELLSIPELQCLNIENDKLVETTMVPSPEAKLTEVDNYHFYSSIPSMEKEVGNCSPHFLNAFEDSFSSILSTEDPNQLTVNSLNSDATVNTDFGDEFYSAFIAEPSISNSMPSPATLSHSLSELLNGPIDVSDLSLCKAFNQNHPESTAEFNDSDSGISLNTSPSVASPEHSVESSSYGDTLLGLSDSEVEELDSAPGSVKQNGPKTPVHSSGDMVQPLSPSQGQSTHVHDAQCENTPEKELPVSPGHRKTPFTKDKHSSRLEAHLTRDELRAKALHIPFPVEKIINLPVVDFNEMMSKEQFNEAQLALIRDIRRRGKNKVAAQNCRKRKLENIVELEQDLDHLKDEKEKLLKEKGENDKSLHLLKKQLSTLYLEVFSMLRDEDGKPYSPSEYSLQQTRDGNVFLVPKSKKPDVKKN
In words: Activation of Nrf2 in human BEAS2B cells assessed as upregulation of gamma-GCS protein expression at 50 to 100 uM after 18 hrs by immunoblot analysis. It is filed as cell-based.

The target in series [3] is T2, Nuclear factor erythroid 2-related factor 2 (Mus musculus) (UniProt Q60795).
T2 sequence (whole entry): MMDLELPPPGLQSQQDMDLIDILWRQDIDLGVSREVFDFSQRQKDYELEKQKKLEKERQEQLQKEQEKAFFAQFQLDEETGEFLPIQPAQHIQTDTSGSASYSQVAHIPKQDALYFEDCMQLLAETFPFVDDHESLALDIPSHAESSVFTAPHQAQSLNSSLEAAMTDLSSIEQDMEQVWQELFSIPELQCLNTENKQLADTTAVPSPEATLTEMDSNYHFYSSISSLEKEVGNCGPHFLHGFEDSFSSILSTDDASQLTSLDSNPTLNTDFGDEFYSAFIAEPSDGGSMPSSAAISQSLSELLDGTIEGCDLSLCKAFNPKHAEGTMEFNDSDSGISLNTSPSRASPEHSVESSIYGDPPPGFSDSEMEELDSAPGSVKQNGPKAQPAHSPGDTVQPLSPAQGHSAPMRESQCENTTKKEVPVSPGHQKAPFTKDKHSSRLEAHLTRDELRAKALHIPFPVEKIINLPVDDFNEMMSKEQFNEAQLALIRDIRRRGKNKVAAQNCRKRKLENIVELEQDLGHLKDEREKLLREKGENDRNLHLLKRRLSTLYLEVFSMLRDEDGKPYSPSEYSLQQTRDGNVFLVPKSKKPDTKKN
In words: Activation of Nrf2 in mouse Heap1c1c7 cells assessed as induction of NAD(P)H:quinone reductase activity at 6.25 uM pretreated for 1 hr followed by co-treatment with PKC inhibitor Go6983 for 24 hrs. The class given is cell-based.

The target of series [4] is T1, Nuclear factor erythroid 2-related factor 2 (Homo sapiens). In words: Activation of Nrf2 in human BEAS2B cells assessed as upregulation of Nrf2 protein expression at 0.31 to 20 uM after 18 hrs by immunoblot analysis. It is filed as cell-based.
The target of series [5] is T2, Nuclear factor erythroid 2-related factor 2 (Mus musculus). In words: Activation of Nrf2 in mouse Heap1c1c7 cells assessed as induction of NAD(P)H:quinone reductase activity at 25 uM relative to control. It is filed as cell-based.
Series [6] addresses T1, Nuclear factor erythroid 2-related factor 2 (Homo sapiens). Nature of the series: Stabilization of Nrf2 in human BEAS2B cells assessed as protein half life at 6.25 uM preincubated for 8 hrs followed by CHX addition and measured over 10 to 40 mins by immunoblot analysis (reference value: 14.7 min). The class given is cell-based.
Series [7] has the same target. In words: Activation of Nrf2 in human BEAS2B cells assessed as suppression of As(+3)-induced overproduction of reactive oxygen species at 6.25 uM pretreated for 8 hrs followed by As(+3) challenge and measured after 10 hrs. The class given is cell-based.
In series [8] the test system is BEAS-2B. Nature of the series: Cytotoxicity against human BEAS2B cells assessed as decrease in cell viability up to 25 uM after 48 hrs by MTT assay. It is filed as cell-based.
In series [9] the target is T1, Nuclear factor erythroid 2-related factor 2 (Homo sapiens). In words: Activation of Nrf2 in human BEAS2B cells assessed as upregulation of NQO1 protein expression at 6.25 uM pretreated for 1 hr followed by co-treatment with p38 MAPK inhibitor SB203580 for 18 hrs by immunoblot analysis. It is filed as cell-based.
For series [10] the target is unchanged. Nature of the series: Activation of Nrf2 in human BEAS2B cells assessed as upregulation of GSH levels after 24 hrs. The class given is cell-based.
Series [11] shares this target. In words: Activation of Nrf2 in human MDA-MB-231 cells assessed as upregulation of Nrf2 protein expression after 16 hrs by immunoblot analysis. It is filed as cell-based.
For series [12] the target is unchanged. In words: Activation of Nrf2 in human BEAS2B cells assessed as upregulation of Nrf2 protein expression at 6.25 uM pretreated for 1 hr followed by co-treatment with PERK inhibitor GSK2606414 for 18 hrs by immunoblot analysis. It is filed as cell-based.
Series [13] deals with BEAS-2B. Nature of the series: Cytoprotective activity in human BEAS2B cells assessed as decrease in As(+3)-induced cell apoptosis at 6.25 uM preincubated for 8 hrs followed by As(+3) challenge and measured after 24 hrs by annexin V-FITC/propidium iodide staining-based flow cytometric method. It is filed as functional.
In series [14] the target is T1, Nuclear factor erythroid 2-related factor 2 (Homo sapiens). In words: Activation of Nrf2 in human BEAS2B cells assessed as upregulation of gamma-GCS protein expression at 6.25 uM after 48 hrs by immunoblot analysis. It is filed as cell-based.
For series [15] the target is unchanged. In words: Induction of Nrf2 translocation from cytoplasm to nucleus in human BEAS2B cells at 6.25 uM after 18 hrs by DAPI staining-based immunofluorescence analysis. It is filed as cell-based.
The target is the same in series [16]. In words: Activation of Nrf2 in human BEAS2B cells assessed as upregulation of NQO1 protein expression at 3.12 to 25 uM after 12 hrs by immunoblot analysis. It is filed as cell-based.
For a further series, the system named is MDA-MB-231. In words: Cytotoxicity against human MDA-MB-231 cells assessed as decrease in cell viability at 3.12 to 100 uM after 24 hrs by MTT assay. It is filed as cell-based. As to conditions: mda-mb-231, 24 h.
The target in series [17] is T1, Nuclear factor erythroid 2-related factor 2 (Homo sapiens). Nature of the series: Activation of Nrf2 in human BEAS2B cells assessed as upregulation of gamma-GCS protein expression at 6.25 uM after 8 to 24 hrs by immunoblot analysis. It is filed as cell-based.
Series [18] addresses T2, Nuclear factor erythroid 2-related factor 2 (Mus musculus). Nature of the series: Activation of Nrf2 in mouse Heap1c1c7 cells assessed as induction of NAD(P)H:quinone reductase activity at 6.25 uM pretreated for 1 hr followed by co-treatment with PI3K inhibitor wortmannin for 24 hrs. It is filed as cell-based.
The target of series [19] is T1, Nuclear factor erythroid 2-related factor 2 (Homo sapiens). Nature of the series: Activation of Nrf2 in human BEAS2B cells assessed as upregulation of NQO1 protein expression at 6.25 uM pretreated for 1 hr followed by co-treatment with PKC inhibitor Ro-31-8220 for 18 hrs by immunoblot analysis. It is filed as cell-based.

Calls of active or inactive are those of the source. No cut-off for these calls is given here.

With `COc1ccc(-c2coc3cc(OC)cc(O)c3c2=O)cc1` [4',7-DIMETHOXY-5-HYDROXYGENISTEIN], the result (in the series with BEAS-2B [1]; in series [7]; in the series with BEAS-2B [13]; in series [15]; in [16]; in series [17]) was Active. In addition, the outcome in series [18] was Active. The result in series [2], in series [3], in series [9], in [12], in series [14] and in [19] was inactive. Besides, the Activity entry was “Dose-dependent effect” in [4]; “Non-Toxic” with BEAS-2B [8]; “Dose-dependent effect” in series [10]; “Dose-dependent effect” in series [11]; “Non-Toxic” with MDA-MB-231. Moreover, in series [5], the fold change (FC) turned out to be 2.08. The T1/2 in series [6] turned out to be 27.6 min.
